Measurements taken from US8703726B2, “Methods for treating prostate conditions” (PTC Therapeutics, Inc., priority 2009, dated 2014).
Like-named read-outs stand apart in the source and are kept apart here.

Experiments:
[1] = system: LNCaP prostate tumor cells; conditions: mouse, in vivo, iv, 3 mg/kg
Experimental: (§1) Male C.B.17 SCID mice (Charles River Laboratory; Wilmington, Mass.) were inoculated with LNCaP prostate tumor cells (6.1×10^6 cells/mouse) obtained from the ATCC (Manassas, Va.). […] Mice were inoculated using a 25 gauge needle in the right flank in a volume of 0.2 mL. A total of 95 mice were injected, of which 32 were used.
(§2) Treatment started on Day 0 and continued through Day 31.
(§3) Body Weight: One day prior to the initiation of the study, the mice were weighed. Thereafter, mice were weighed every week and on the day that the study was terminated.
(§4) Tumor Size: Tumors were measured every 3 to 4 days using digital calipers. To calculate tumor volume, the following calculation was used, where L equals the longest dimension measurement and W equals the shortest dimension measurement:
(§5) Data Analysis: Tumor growth was calculated as: [1-[(final tumor size minus initial tumor size in test compound treated-mice)/(final tumor size minus initial tumor size in vehicle-treated mice)]×100%
(§6) Percent change in body weight was calculated as: [(Body weight on Day of study)−(initial body weight)/(initial body weight)]×100%
(§7) Differences in tumor size, tumor growth, and body weight change among groups were analyzed by ANOVA (analysis of variance) (SigmaStat 3.0).

[2] = system: LNCaP prostate tumor cells; experiment: LNCaP tumors in SCID mice: Compound #10 as monotherapy and with docetaxel
Experimental: as §1, §2, §3, §4, §5, §6, §7

[3] = system: PC3 xenografts; experiment: PC3 tumors in mice: Compound #10 as monotherapy and with docetaxel
Experimental: PC3 cells (CRL 1435) obtained from the American Type Tissue Collection (ATCC, Manassas, Va.) were thawed and seeded at 0.5×10^7 cells per 175 mm^2 flask. Cells were fed and expanded on a regular schedule to reach a given density prior to passage. Flasks were between 80-90% confluent, but not >95% confluent on the day of harvest. Harvest occurred ˜48 hr after the previous split to allow for full recovery.
To harvest the cells, medium was removed from the flasks and the cell layers rinsed with 37° C. PBS. A volume of 3 mL trypsin-EDTA was added per 175 cm^2 surface area and incubated at room temperature for 5 minutes until the cells detached. The cells were collected in 7-10 mL ice cold complete medium and were transferred to a conical tube. The tube was placed immediately on ice. After all flasks were harvested, the cells were pelleted by centrifugation at 4° C. Cells were re-suspended at 2.5×10^7 cells/mL in Hank's Salt Solution and 10 mM HEPES. Cells were stored on ice until the time of tumor inoculation (which was less than 1 h later).
Tumor Cell Injection: Tumor cells were kept on ice at all times. […] A 25-gauge needle was used for tumor cell injections. Tumor cells were injected in a volume of 0.2 mL subcutaneously. A total of 100 mice were inoculated, of which 69 were used in the study.
Seventeen days after inoculation, the mice were randomized into six groups. At this time, the majority of the tumors had reached a volume of 170-415 mm^3. Randomization of the mice was performed by using the formula RAND ( )*5000 from Microsoft Excel. […] Animals with tumors that were not within the 170-415 mm^3 range were excluded from the study.
Furthermore, all animals in a group were taken off study when the mean tumor size in that group reached 1000 mm^3.
as §4
Differences in mean tumor size, tumor growth, and body weight change were compared across groups using analysis of variance (ANOVA) (SigmaStat 3.0).
To calculate the time to progression, defined as the number of days for a tumor to reach 1000 mm^3, tumor growth vs time was individually plotted for each animal. The time to reach 1000 mm^3 estimated for each animal. […] The median and mean time for each treatment group to reach 1000 mm^3 was then calculated and groups were compared using ANOVA (SigmaStat 3.0).
as §3

[4] = system: LNCaP prostate tumor cells; experiment: LNCaP tumors in SCID mice: Compound #10 as monotherapy and with bicalutamide
Experimental: as §1
(§8) Twenty-seven days after inoculation, the mice were randomized into 4 groups as outlined in Table 33. […] Treatment started on Day 0 and continued through Day 30.
as §3, §4
(§9) Tumor growth was calculated as: [1-[(final tumor size minus initial tumor size in test compound treated-mice)/(final tumor size minus initial tumor size in vehicle-treated mice)]×100%
as §6, §7

[5] = system: LNCaP prostate tumor cells; conditions: mouse, in vivo, po, 25 mg/kg
Experimental: as §1, §8, §3, §4, §9, §6, §7

[6] = system: HT1080 cells; experiment: Cell cycle analysis by propidium iodide flow cytometry in HT1080 cells (% cells in S-phase, Table 24); type: cell-based, human; conditions: same tumor cells
Experimental: Experimental Design. […] After treatment, cells were trypsinized, and stained with propidium iodide (PI) dye to measure DNA content of individual cells by flow cytometry. Output comprised histograms showing relative DNA content in 10,000 cells.
While compounds which cause greater than 20% of the cells to accumulate in S-phase at 100 nM are considered active, a larger percentage of cells may be accumulated in S-phase at lower doses depending on the Compound, as shown in FIG. 12 for example.

[7] = Docetaxel, 3 mg/kg IV on Days 1 and 8, Vehicle, QD, daily
[8] = Bicalutamide, 25 mg/kg QD on Days 0, 1, 2, 3, 6, 7, 8, 9, and 10, L21 vehicle, QD, oral

CC(=O)O[C@@]12CO[C@@H]1C[C@H](O)[C@@]1(C)C(=O)[C@H](O)C3=C(C)[C@@H](OC(=O)[C@H](O)[C@@H](NC(=O)OC(C)(C)C)c4ccccc4)C[C@@](O)([C@@H](OC(=O)c4ccccc4)[C@H]21)C3(C)C [docetaxel]
Day of Maximal Loss (body weight) [1]: (Day 13) | Maximal Body Weight Loss From Initial Weight [1]: −15% | mean±SD tumor size ([2]; Day 31, Compound #10 10 mg/kg PO QD, docetaxel 3 mg/kg Days 1 and 8): 1017±458 mm3 | inhibition of tumor size or of the increase in tumor size versus vehicle ([2]; Day 31, docetaxel 3 mg/kg Days 1 and 8): No statistically significant differences | Percent Inhibition Relative to Vehicle: Tumor Growth From Day 0 to 31 [2, 7]: 17% | Percent Inhibition Relative to Vehicle: Tumor Volume at Day 31 [2, 7]: 12% | Average Time on Therapy ([3]; 3 mg/kg IV Day 1, 8 and 10 mg/kg Day 29, vehicle 22): 23 days | Median Time to Reach 1000 mm^3 (time to progression) ([3]; 3 mg/kg IV Day 1, 8 and 10 mg/kg Day 29, vehicle 23): 22 days | body weight change ([3]; PC3 tumor-bearing mice, Day 35 / Day 42): significantly more weight loss | median time to progression (tumor ≧1000 mm^3) ([3]; docetaxel IV 3 mg/kg on Day 1 and at 8 and 10 mg/kg on Day 29): 22 days | tumors vs vehicle-treated mice ([3]; docetaxel IV, up to Day 35): not significantly different from the tumors in vehicle-treated mice

CC(O)(CS(=O)(=O)c1ccc(F)cc1)C(=O)Nc1ccc(C#N)c(C(F)(F)F)c1 (centres unmarked) [bicalutamide]
Percent Inhibition Relative to Vehicle: Tumor Growth From Day 0 to 31 [4, 8]: 9.3%^ | Percent Inhibition Relative to Vehicle: Tumor Volume at Day 31 [4, 8]: 7.2%^ | mean±SD tumor size ([4]; Day 30, Compound #10 10 mg/kg PO QD, bicalutamide 25 mg/kg QD): 1059±321 mm3 | Day of Maximal Loss (body weight) [5]: 20 days | Maximal Body Weight Loss From Initial Weight [5]: −5.3%

NC(Cn1ccc(=O)c(O)c1)C(=O)O (centres unmarked) [mimosine]
effect of comparator on cell cycle (and VEGF production) (data not shown) [6]: does not delay or prolong the cell cycle or reduce VEGF production
